According to article PMC3886529, “Structural Features of the Peptide Homologous to 6-25 Fragment of Influenza A PB1 Protein” (International Journal of Peptides, 2013):
Ends that are not written are not given here.

How the values were obtained:
PB1 (6-25) [1] = molecular target: T1, PB1 (6-25) (Influenza A virus, UniProt O89749); assay type: physicochemical
PB1 (6-25) [2] = molecular target: T1, PB1 (6-25); assay type: physicochemical; remark: listed apart in the source
PB1 (6-25) [3] = molecular target: T1, PB1 (6-25); assay type: physicochemical; conditions: pH 7.4
[4] = assay type: physicochemical; conditions: diluted to 0.2 mM, negative staining (phosphotungstic acid, pH 7.4), 80 kV
PB1 (6-25) [5] = molecular target: T1, PB1 (6-25); assay type: binding
PB1 (6-25) [6] = molecular target: T1, PB1 (6-25); test: biochemical; assay type: binding
[7] = Circular dichroism, secondary structure of PB1 (6-25) in solution; assay type: physicochemical; conditions: CD 194–320 nm, 1 mg/mL solution
Protocol: Circular dichroism (194–320 nm) was measured on PB1 (6-25) 1 mg/mL solution. Spectra were analyzed with CDNN software.

## TLLFLKVP-OH [PB1 (6-13), TLLFLKVP]
PB1 (6-25) [1]
  reversibility of insoluble aggregates: could not reverse into soluble forms after dilution or heating
PB1 (6-25) [2]
  diameter of aggregates: 500–1000 nm
PB1 (6-25) [3]
  characteristic linear size of structured aggregates: about 500 nm
[4]
  formation of structured aggregates, single peptide alone: not in the samples containing either one of the peptides
PB1 (6-25) [5]
  effect on antiparallel beta-sheets of PB1 (6-25): contributed to increase antiparallel beta-sheets
PB1 (6-25) [6]
  Kd: 200 to 1000 µM

## TLLFLKVPAQNAISTTFPYT [PB1 (6-25), peptide comprised of amino acid residues 6-25 of influenza virus PB1]
[7]; CDNN software
  alpha-helix content: 8%
  antiparallel beta-sheet content: 30%
  beta-turns content: 25%
  random coil structure content: 37%
[7]; compared with the molecular dynamics model
  secondary structure in solution: structure similar to the described model of beta-hairpin
[4]
  formation of structured aggregates, single peptide alone: not in the samples containing either one of the peptides
